Values quoted from earlier work in patent publication US20090311237A1, “Combination therapy using a soluble hyaluronidase and a bisphosphonate” (priority 2008, published 2009).
Like-named read-outs stand apart in the source and are kept apart here.

Conditions: cited from earlier work; for IV MRT: IV […] infusion, calculated from published ZA PK data

O=P(O)(O)C(O)(Cn1ccnc1)P(=O)(O)O [ZA, 1-hydroxy-2-(1H-imidazol-1-yl)ethylidene-1,1-bisphosphonic acid]
IV MRT (adjusted to match SC dose 0.25 mg): 1.9010 h | IV MRT (adjusted to match SC dose 0.5 mg): 2.2330 h | IV MRT (adjusted to match SC dose 1 mg): 5.2494 h | IV MRT (adjusted to match SC dose 5 mg): 9.1957 h | terminal γ phase half-life (T½γ) (man, IV): ~146 h
